Assay results published in patent US4997816A, “Induction of fertile ovulation in anoestruns mares” (The University of Melbourne, priority 1985, dated 1991).
“And” between values parts separate entries of the source, which are not always exact repeats. Identical values can stand only once. Like-named read-outs stand apart in the source and are kept apart here.

How the values were obtained:
Format in all cases: in vivo, mare
[1] = tested on: Standardbred and Standardbred-type mares in transitional anoestrus
Excerpt: Delivery of GnRH was achieved via osmotic minipumps (OMP; Alza Corp., Palo Alto, CA:). These pumps are constructed of a rigid, semi-permeable membrane, inside which is suspended a water-proof bag which is filled with the substance to be infused. The neck of the bag is open to the atmosphere. Between the bag and the membrane a special osmotic solution is held. This solution causes an influx of water through the semi-permeable membrane when the OMP is placed in the body of animals. The influx of water collapses the bag at a fixed rate and the substance contained in the bag is expelled from the OMP at a steady rate. […] Seventeen Standardbred and Standardbred-type mares 3 to 9 years of age were used in the experiment, which commenced on Oct. 2, 1985, when the mares were in transitional anoestrus. The mares were divided into 2 groups. One group (n=g) was treated with an infusion of GnRH at a rate of 100 ng/kg/h delivered by subcutaneously implanted OMP for 28 days. The mares were run in paddocks during the experiment and brought into yards every 2 or 3 days, during which time oestrus detection was carried out. […] Blood samples were collected 3 times per week for determination of plasma LH and progesterone concentrations. Ultrasound echography was used to diagnose pregnancy 14 days after ovulation, and every 2 or 3 days thereafter until Day 45 of pregnancy, when the experiment was terminated.

[2] = tested on: maiden Standardbred mares in deep winter anoestrus; experiment: Example III: 28-day subcutaneous GnRH infusion by osmotic minipump, induction of ovulation (1985); conditions: for Proportion mares ovulating: deep anoestrus; for Proportion mares ovulating / Percentage mares ovulating: 1985
Excerpt: Delivery of GnRH was achieved via osmotic minipumps (OMP; Alza Corp., Palo Alto, CA:). These pumps are constructed of a rigid, semi-permeable membrane, inside which is suspended a water-proof bag which is filled with the substance to be infused. The neck of the bag is open to the atmosphere. Between the bag and the membrane a special osmotic solution is held. This solution causes an influx of water through the semi-permeable membrane when the OMP is placed in the body of animals. The influx of water collapses the bag at a fixed rate and the substance contained in the bag is expelled from the OMP at a steady rate. […] Sixteen maiden Standardbred mares, 3 to 6 years of age were used in the experiment which was conducted during deep winter anoestrus in 1985. The mares were in good to excellent condition and were run in 2 outside paddocks during the period of the experiment. The mares were divided into 3 groups. Group C (n=5) were untreated and acted as a control group, while Group 50 (n=5) and Group 100 (n=6) received infusions of GnRH at rates of 50 ng/kg/h and 100 ng/kg/h, respectively. The GnRH was delivered via subcutaneously implanted OMP for 28 days, starting on July 2, 1985. Ovarian palpations and oestrus detection was carried out 3 times per week or daily when an ovarian follice of >3 cm diameter was detected.

mares in deep anoestrus = experiment: Combined results, deep anoestrus (1984 and 1985); conditions: 1984 and 1985 combined
Experimental: Fourteen Standardbred mares in deep anoestrus were divided into 3 groups. Group C (controls; n=5) received no treatment while Group 50 (n=5) and Group 100 (n=4) were given infusions of GnRH at rates of 50 ng/kg/h and 100 ng/kg/h respectively. The GnRH was administered via subcutaneously implanted osmotic minipumps (OMP) for 28 days. Blood samples were collected daily and ovarian palpation and oestrus detection was carried out 3 times per week or daily if a follicle >3.5 cm was detected. The mares were divided into 3 groups. Group C (n=5) were untreated and acted as a control group, while Group 50 (n=5) and Group 100 (n=6) received infusions of GnRH at rates of 50 ng/kg/h and 100 ng/kg/h, respectively. The GnRH was delivered via subcutaneously implanted OMP for 28 days, starting on July 2, 1985. Ovarian palpations and oestrus detection was carried out 3 times per week or daily when an ovarian follice of >3 cm diameter was detected.

[3] = tested on: mares in transitional anoestrus; experiment: Combined results, transitional anoestrus (1984 and 1985); conditions: 100 ng/kg/h
Experimental: The experiment commenced on Sept. 10, 1984. Mares were randomised in pairs to a Treated group or a Control group until all the mares had been assigned to groups by Sept. 21. The mares were paired on the basis of each mare having approximately equal ovarian follicular activity. Each treated mare was weighted just prior to the experiment. The dose of GnRH (100 ng/kg/hr) to be administered over 28 days was calculated and dissolved in sterile, physiological (0.9%) saline. The solution was loaded into an OMP and placed in a beaker of saline at room temperature overnight to allow for the "start up time" of the OMP. The mares were divided into 2 groups. One group (n=g) was treated with an infusion of GnRH at a rate of 100 ng/kg/h delivered by subcutaneously implanted OMP for 28 days. The mares were run in paddocks during the experiment and brought into yards every 2 or 3 days, during which time oestrus detection was carried out. […] Blood samples were collected 3 times per week for determination of plasma LH and progesterone concentrations. Ultrasound echography was used to diagnose pregnancy 14 days after ovulation, and every 2 or 3 days thereafter until Day 45 of pregnancy, when the experiment was terminated.

[4] = tested on: Standardbred mares in deep anoestrus; conditions: for Proportion mares ovulating: deep anoestrus; for Proportion mares ovulating / Percentage mares ovulating: 1984
Excerpt: Delivery of GnRH was achieved via osmotic minipumps (OMP; Alza Corp., Palo Alto, CA:). These pumps are constructed of a rigid, semi-permeable membrane, inside which is suspended a water-proof bag which is filled with the substance to be infused. The neck of the bag is open to the atmosphere. Between the bag and the membrane a special osmotic solution is held. This solution causes an influx of water through the semi-permeable membrane when the OMP is placed in the body of animals. The influx of water collapses the bag at a fixed rate and the substance contained in the bag is expelled from the OMP at a steady rate. […] Fourteen Standardbred mares in deep anoestrus were divided into 3 groups. Group C (controls; n=5) received no treatment while Group 50 (n=5) and Group 100 (n=4) were given infusions of GnRH at rates of 50 ng/kg/h and 100 ng/kg/h respectively. The GnRH was administered via subcutaneously implanted osmotic minipumps (OMP) for 28 days. Blood samples were collected daily and ovarian palpation and oestrus detection was carried out 3 times per week or daily if a follicle >3.5 cm was detected.

[5] = tested on: Standardbred mares in transitional or "shallow" anoestrus
Excerpt: Delivery of GnRH was achieved via osmotic minipumps (OMP; Alza Corp., Palo Alto, CA:). These pumps are constructed of a rigid, semi-permeable membrane, inside which is suspended a water-proof bag which is filled with the substance to be infused. The neck of the bag is open to the atmosphere. Between the bag and the membrane a special osmotic solution is held. This solution causes an influx of water through the semi-permeable membrane when the OMP is placed in the body of animals. The influx of water collapses the bag at a fixed rate and the substance contained in the bag is expelled from the OMP at a steady rate. […] Ten young Standardbred mares of 3 to 5 years of age as judged by wear of the teeth were used in the experiment. During the experiment, the mares were fed hay twice daily and kept in a paddock. The mares were vaccinated against Tetanus and Strangles and were given regular anthelmintic and lice treatments. Their body condition during the experiment was good to very good. Ovarian palpations were carried out and blood was collected from the mares every 2 or 3 days for 4 weeks prior to commencement of the experiment. […] The experiment commenced on Sept. 10, 1984. Mares were randomised in pairs to a Treated group or a Control group until all the mares had been assigned to groups by Sept. 21. The mares were paired on the basis of each mare having approximately equal ovarian follicular activity. Each treated mare was weighted just prior to the experiment. The dose of GnRH (100 ng/kg/hr) to be administered over 28 days was calculated and dissolved in sterile, physiological (0.9%) saline. The solution was loaded into an OMP and placed in a beaker of saline at room temperature overnight to allow for the "start up time" of the OMP. The OMP were inserted subcutaneously in the side of the necks of the treated mares, under local infiltration anaesthesia. The pumps were retained using 1 or 2 mattress sutures in the skin. After insertion of the OMP, the treated and control mares were run as a group in a single paddock. Every 2 or 3 days the mares were brought into the yards. Ovarian palpations were carried out and blood samples were collected on these days. In addition, the mares were teased with a vigorous stallion, to detect oestrus. […] Blood samples were assayed for lutsinizing hormone (LH) and progesterone concentrations. Ultrasound echography was used to diagnose pregnancy 14 days after ovulation. Subsequent ultrasound examinations were made every 2 or 3 days until Day 45 of pregnancy, when the experiment was terminated.

[6] = Group 50, 50 ng/kg/h s.c. OMP 28 days
[7] = Group 100, 100 ng/kg/h s.c. OMP 28 days

## CC(C)C[C@H](NC(=O)CNC(=O)[C@H](Cc1ccc(O)cc1)NC(=O)[C@H](CO)NC(=O)[C@H](Cc1c[nH]c2ccccc12)NC(=O)[C@H](Cc1c[nH]cn1)NC(=O)[C@@H]1CCC(=O)N1)C(=O)N[C@@H](CCCNC(=N)N)C(=O)N1CCC[C@H]1C(=O)NCC(N)=O [GnRH, pGlu-His-Trp-Ser-Tyr-Gly-Leu-Arg-Pro-Gly-NH2]
[1]; 100 ng/kg/h s.c. OMP 28 days, transitional anoestrus, 1985
  Treated mares that ovulated during the period the OMP were functional: Eight of 9
[1]; 100 ng/kg/h, 1985, n=9, P<0.05 vs controls
  Average time (day) of ovulation from commencement of the experiment (x ± s.e.m.): 18.6 ± 4.3 days and 18.8 ± 4.3 days
[1]; 100 ng/kg/h, 1985, treated group
  Mares that failed to conceive: One
[1]; 100 ng/kg/h, 1985, P<0.05 vs controls, one mare failed to conceive
  Average day of conception from commencement of the experiment (x ± s.e.m.): 24.4 ± 8.1 days
[2]; Group 50, 50 ng/kg/h
  Average time from OMP insertion to ovulation: 24 days
  Percentage mares ovulating: 20%
[2]; [6]
  Proportion mares ovulating: 1 of 5 and 1/5
[2]; Group 100, 100 ng/kg/h
  Average time from OMP insertion to ovulation: 21.8 days
  Percentage mares ovulating: 67%
[2]; [7]
  Proportion mares ovulating: 4 of 6 and 4/6
Mares in deep anoestrus; Group 50, 50 ng/kg/h
  Percentage mares ovulating: 30%
  Proportion mares ovulating: 3/10
Mares in deep anoestrus; Group 100, 100 ng/kg/h
  Percentage mares ovulating: 70%
Mares in deep anoestrus; Group 100, 100 ng/kg/h, P < .01 vs controls
  Proportion mares ovulating: 7/10
[3]; 1984 and 1985 combined, n=14, P < .001 compared to controls
  Day of ovulation (x ± s.e.m.): 18.6 ± 3.0
[3]; 1984 and 1985 combined, n=14, P < .05 compared to controls
  Day of conception (x ± s.e.m.): 25.2 ± 6.0
[3]; data for the 2 years combined
  Average day of ovulation earlier than the controls: approximately 23 days
  Day of conception earlier than the controls: 24 days
[4]; Group 50, 50 ng/kg/h
  Average time from OMP insertion to ovulation: 18.5 days
  Percentage mares ovulating: 40%
[4]; [6]
  Proportion mares ovulating: 2 of 5 and 2/5
[4]; Group 100, 100 ng/kg/h
  Average time from OMP insertion to ovulation: 17.3 days
  Percentage mares ovulating: 75%
[4]; [7]
  Proportion mares ovulating: 3 of 4 and 3/4
[4]; Group 100 compared to controls, Day 21
  Mean LH pulse frequency: significantly (<0.05) higher
[4]; between the 3 groups, any of the days studied
  LH pulse amplitude: no statistical difference
[4]; between the groups, Day 28
  LH pulse frequency: no difference
[4]; both treated groups (50 and 100 ng/kg/h) compared to control mares
  Mean daily plasma LH concentrations: higher
[4]; both treated groups compared to controls, within 7 days of insertion of OMP
  LH pulse frequency: significantly (p<0.05) higher
[5]; 100 ng/kg/hr s.c. OMP 28 days, transitional anoestrus, 1984
  Treated mares that ovulated during GnRH infusion: Four of the 5
[5]; 100 ng/kg/hr, 1984
  Treated mares that conceived in association with the first ovulation after insertion of the OMP: Four of the 5
[5]; 100 ng/kg/hr, 1984, n=5, after OMP insertion, p<0.01 vs controls
  Day of conception (x ± s.e.m.): 26.6 ± 9.7 days and 26.6 days
[5]; 100 ng/kg/hr, 1984, n=5, p<0.01 vs controls
  Time (day) of ovulation from commencement of the experiment (x ± s.e.m.): 18.6 ± 4.1 days and 18.6 days
